Laboratory results taken from patent publication US11000033B2, “Ketone or oxime compound, and herbicide” (NISSAN CHEMICAL CORPORATION, priority 2014, dated 2021).

Columns and labels:
Format in all cases: in vivo
[1] = tested on: Echinochloa oryzacola Vasing.; assay: Test Example 2: herbicidal activity, application during weed generation in submerged conditions (symbol A); settings: Table 23; application herbicide amount 320 g/ha; grade 0-5 by criteria of Test Example 1
In short: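 Treatment timing was the one- to two-leaf stage, with diluted emulsifiable compound dropped onto the paddy water (depth 4 cm) over alluvial soil. All three species grew from a mixed sowing in a 25° C. to 30° C. greenhouse. Injury was judged by eye 3 weeks on.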

Leptochloa chinensis = assay: Test Example 3: herbicidal effect by foliage application, Wagner pot (symbol D); settings: application herbicide amount 320 g/ha
In short: (§1)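 The compound, formulated as an emulsion and diluted with water to a predetermined rate, is applied uniformly to leaves of two-week-old seedlings growing in submerged alluvial soil at 25–30 °C. Rice is included. Each plant is assessed 3 weeks later using defined criteria.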

Cyperus difformis = assay: Test Example 3: herbicidal effect by foliage application, Wagner pot (symbol E); settings: application herbicide amount 320 g/ha
In short: as §1

[2] = tested on: directly sowed rice plant; assay: Test Example 3: effect on crop by foliage application, Wagner pot (symbol b); settings: application herbicide amount 320 g/ha
In short: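 Plants are raised from seed in flooded paddy conditions: water stands 0.1–0.5 cm over alluvial soil, and the pot is kept in a greenhouse at 25–30 °C. Species sown are barnyardgrass (E. crus-galli var. crus-galli), Leptochloa chinensis, Cyperus difformis and rice.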

Setaria viridis = assay: Test Example 4: herbicidal effect by soil treatment (symbol G); settings: application herbicide amount 320 g/ha
In short: (§2)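 Seeds were sown in sterilized diluvial soil, covered with about 1.5 cm of soil, and the soil surface was sprayed with a water-diluted emulsion of the compound at a predetermined rate. Plants grew in a greenhouse at 25° C. to 30° C.; effects were scored visually 3 weeks after application.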

Avena fatua [3] = assay: Test Example 4: herbicidal effect by soil treatment (symbol I); settings: application herbicide amount 320 g/ha
In short: as §2

Alopecurus myosuroides = assay: Test Example 4: herbicidal effect by soil treatment (symbol J); settings: application herbicide amount 320 g/ha
In short: as §2

Lolium multiflorum Lam. = assay: Test Example 4: herbicidal effect by soil treatment (symbol K); settings: application herbicide amount 320 g/ha
In short: as §2

Abutilon theophrasti = assay: Test Example 4: herbicidal effect by soil treatment (symbol M); settings: application herbicide amount 320 g/ha
In short: as §2

Amaranthus retroflexus = assay: Test Example 4: herbicidal effect by soil treatment (symbol N); settings: application herbicide amount 320 g/ha
In short: as §2

Chenopodium album [4] = assay: Test Example 4: herbicidal effect by soil treatment (symbol O); settings: application herbicide amount 320 g/ha
In short: as §2

Galium spurium = assay: Test Example 4: herbicidal effect by soil treatment (symbol Q); settings: application herbicide amount 320 g/ha
In short: as §2

rice = assay: Test Example 4: effect on crop by soil treatment (symbol b); settings: application herbicide amount 320 g/ha
In short: (§3)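 Plants are raised in a greenhouse (25° C. to 30° C.) from spot-sown seed, which sits under about 1.5 cm of sterilized diluvial soil in a box shared with weed species.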

wheat = assay: Test Example 4: effect on crop by soil treatment (symbol e); settings: application herbicide amount 320 g/ha
In short: as §3

Avena fatua [5] = assay: Test Example 5: herbicidal effect by foliage application, plastic box (symbol I); settings: 320 g/ha, 3 weeks after application
In short: (§4)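 Leaf-applied emulsion, water-diluted to a preset herbicide dose, on two-week-old seedlings raised in a 25° C. to 30° C. greenhouse; injury rated at 3 weeks using earlier criteria.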

Chenopodium album [6] = assay: Test Example 5: herbicidal effect by foliage application, plastic box (symbol O); settings: 320 g/ha, 3 weeks after application
In short: as §4

Stellaria media = assay: Test Example 5: herbicidal effect by foliage application, plastic box (symbol P); settings: 320 g/ha, 3 weeks after application
In short: as §4

corn = assay: Test Example 5: effect on crop by foliage application, plastic box (symbol c); settings: 320 g/ha, 3 weeks after application
In short: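 Plants were raised from seed in a greenhouse (25° C. to 30° C.) after sowing in a plastic box of sterilized diluvial soil.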

Row | SMILES | Herbicidal effect grade, A: Echinochloa oryzacola Vasing. [1] | herbicidal effect on D (Leptochloa chinensis), grade 0-5 (Leptochloa chinensis) | herbicidal effect on E, grade 0-5 (Cyperus difformis) | effect on crop b (directly sowed rice plant), grade 0-5 [2] | G: Setaria viridis, herbicidal effect grade (Setaria viridis) | I: Avena fatua, herbicidal effect grade (Avena fatua [3]) | J: Alopecurus myosuroides, herbicidal effect grade (Alopecurus myosuroides) | K: Lolium multiflorum Lam., herbicidal effect grade (Lolium multiflorum Lam.) | M: Abutilon theophrasti, herbicidal effect grade (Abutilon theophrasti) | N: Amaranthus retroflexus, herbicidal effect grade (Amaranthus retroflexus) | O: Chenopodium album, herbicidal effect grade (Chenopodium album [4]) | Q: Galium spurium, herbicidal effect grade (Galium spurium) | b: directly sowed rice plant, effect on crop grade (rice) | e: wheat, effect on crop grade (wheat) | I: Avena fatua, herbicidal effect (criteria of Test Example 1) (Avena fatua [5]) | O: Chenopodium album, herbicidal effect (criteria of Test Example 1) (Chenopodium album [6]) | P: Stellaria media, herbicidal effect (criteria of Test Example 1) (Stellaria media) | c: corn, effect on crop (criteria of Test Example 1) (corn) | Herbicidal effect grade, G: Setaria viridis (Setaria viridis) | Herbicidal effect grade, I: Avena fatua (Avena fatua [3]) | other results
1 | CON=C(C)CC1CC(O)=C(c2c(C)cc(Br)cc2OC)C1=O (stereo not drawn) [6-076, 2-(4-bromo-2-methoxy-6-methylphenyl)-3-hydroxy-5-{2-(methoxyimino)propyl}cyclopent-2-enone] | 5 (Herbicidal ratio of 90% or more (almost completely withered)) | 5 (Herbicidal ratio of 90% or more (almost completely withered)) | 5 (Herbicidal ratio of 90% or more (almost completely withered)) | 5 (Herbicidal ratio of 90% or more (almost completely withered)) | 5 (Herbicidal ratio of 90% or more (almost completely withered)) | 3 (Herbicidal ratio of 40% or higher and lower than 70%) | 0 (Herbicidal ratio of 5% or lower (almost no effect)) | 5 (Herbicidal ratio of 90% or more (almost completely withered)) | 5 (Herbicidal ratio of 90% or more (almost completely withered)) | 1 (Herbicidal ratio of 5% or higher and lower than 20%) | 0 (Herbicidal ratio of 5% or lower (almost no effect)) | 0 (Herbicidal ratio of 5% or lower (almost no effect)) | 5 (Herbicidal ratio of 90% or more (almost completely withered)) | 0 (Herbicidal ratio of 5% or lower (almost no effect)) | 5 (Herbicidal ratio of 90% or more (almost completely withered)) | 2 (Herbicidal ratio of 20% or higher and lower than 40%) | 2 (Herbicidal ratio of 20% or higher and lower than 40%) | 5 (Herbicidal ratio of 90% or more (almost completely withered)) | – | – | –
2 | CC(=O)CC1CC(O)=C(c2c(C)cc(OCc3ccccc3)cc2C)C1=O (stereo not drawn) [7-018] | 1 (Herbicidal ratio of 5% or higher and lower than 20%) | 5 (Herbicidal ratio of 90% or more (almost completely withered)) | 3 (Herbicidal ratio of 40% or higher and lower than 70%) | 3 (Herbicidal ratio of 40% or higher and lower than 70%) | – | – | – | – | – | – | – | – | – | – | 0 (Herbicidal ratio of 5% or lower (almost no effect)) | 0 (Herbicidal ratio of 5% or lower (almost no effect)) | 0 (Herbicidal ratio of 5% or lower (almost no effect)) | 1 (Herbicidal ratio of 5% or higher and lower than 20%) | 1 (Herbicidal ratio of 5% or higher and lower than 20%) | 0 (Herbicidal ratio of 5% or lower (almost no effect)) | Herbicidal effect grade, J: Alopecurus myosuroides (Alopecurus myosuroides): 0 (Herbicidal ratio of 5% or lower (almost no effect)); Herbicidal effect grade, K: Lolium multiflorum Lam. (Lolium multiflorum Lam.): 0 (Herbicidal ratio of 5% or lower (almost no effect)); Herbicidal effect grade, M: Abutilon theophrasti (Abutilon theophrasti): 0 (Herbicidal ratio of 5% or lower (almost no effect)); Herbicidal effect grade, N: Amaranthus retroflexus (Amaranthus retroflexus): 0 (Herbicidal ratio of 5% or lower (almost no effect)); Herbicidal effect grade, O: Chenopodium album (Chenopodium album [4]): 0 (Herbicidal ratio of 5% or lower (almost no effect)); Herbicidal effect grade, Q: Galium spurium (Galium spurium): 0 (Herbicidal ratio of 5% or lower (almost no effect)); Effect on crop grade, b: directly sowed rice plant (rice): 0 (Herbicidal ratio of 5% or lower (almost no effect)); Effect on crop grade, e: wheat (wheat): 0 (Herbicidal ratio of 5% or lower (almost no effect))
3 | CC(=O)CC1CC(O)=C(c2c(C)cc(-c3ccc(C)cc3)cc2C)C1=O (stereo not drawn) [7-007] | 5 (Herbicidal ratio of 90% or more (almost completely withered)) | 5 (Herbicidal ratio of 90% or more (almost completely withered)) | 4 (Herbicidal ratio of 70% or higher and lower than 90%) | 5 (Herbicidal ratio of 90% or more (almost completely withered)) | – | – | – | – | – | – | – | – | – | – | 4 (Herbicidal ratio of 70% or higher and lower than 90%) | 2 (Herbicidal ratio of 20% or higher and lower than 40%) | 0 (Herbicidal ratio of 5% or lower (almost no effect)) | 5 (Herbicidal ratio of 90% or more (almost completely withered)) | 4 (Herbicidal ratio of 70% or higher and lower than 90%) | 0 (Herbicidal ratio of 5% or lower (almost no effect)) | Herbicidal effect grade, J: Alopecurus myosuroides (Alopecurus myosuroides): 5 (Herbicidal ratio of 90% or more (almost completely withered)); Herbicidal effect grade, K: Lolium multiflorum Lam. (Lolium multiflorum Lam.): 5 (Herbicidal ratio of 90% or more (almost completely withered)); Herbicidal effect grade, M: Abutilon theophrasti (Abutilon theophrasti): 0 (Herbicidal ratio of 5% or lower (almost no effect)); Herbicidal effect grade, N: Amaranthus retroflexus (Amaranthus retroflexus): 0 (Herbicidal ratio of 5% or lower (almost no effect)); Herbicidal effect grade, O: Chenopodium album (Chenopodium album [4]): 0 (Herbicidal ratio of 5% or lower (almost no effect)); Herbicidal effect grade, Q: Galium spurium (Galium spurium): 0 (Herbicidal ratio of 5% or lower (almost no effect)); Effect on crop grade, b: directly sowed rice plant (rice): 4 (Herbicidal ratio of 70% or higher and lower than 90%); Effect on crop grade, e: wheat (wheat): 0 (Herbicidal ratio of 5% or lower (almost no effect))
4 | CON=C(C)CC1CC(O)=C(c2c(C)cc(-c3ccccn3)cc2C)C1=O (mixture of isomers) [6-051] | 5 (Herbicidal ratio of 90% or more (almost completely withered)) | 5 (Herbicidal ratio of 90% or more (almost completely withered)) | 5 (Herbicidal ratio of 90% or more (almost completely withered)) | 5 (Herbicidal ratio of 90% or more (almost completely withered)) | 5 (Herbicidal ratio of 90% or more (almost completely withered)) | 1 (Herbicidal ratio of 5% or higher and lower than 20%) | 5 (Herbicidal ratio of 90% or more (almost completely withered)) | 5 (Herbicidal ratio of 90% or more (almost completely withered)) | 1 (Herbicidal ratio of 5% or higher and lower than 20%) | 5 (Herbicidal ratio of 90% or more (almost completely withered)) | 0 (Herbicidal ratio of 5% or lower (almost no effect)) | 0 (Herbicidal ratio of 5% or lower (almost no effect)) | 5 (Herbicidal ratio of 90% or more (almost completely withered)) | 2 (Herbicidal ratio of 20% or higher and lower than 40%) | – | – | – | – | – | – | I: Avena fatua, herbicidal effect grade (Avena fatua [5]): 4 (Herbicidal ratio of 70% or higher and lower than 90%); O: Chenopodium album, herbicidal effect grade (Chenopodium album [6]): 5 (Herbicidal ratio of 90% or more (almost completely withered)); P: Stellaria media, herbicidal effect grade (Stellaria media): 4 (Herbicidal ratio of 70% or higher and lower than 90%); c: corn, effect on crop grade (corn): 5 (Herbicidal ratio of 90% or more (almost completely withered))
